System: castrated (GDX) male Wistar rats
Assay: In vivo model of efficacy and selectivity (castrated rat; LA, SV wet weight, PALP activity)
Settings: po, two weeks; for LA weight % Efficacy versus control (GDX) (ANOVA, p < 0.05): levator ani wet weight normalized to body weight; for PALP % Efficacy versus control (GDX) (ANOVA, p < 0.05): periosteal alkaline phosphatase activity, tibia; for SV weight % Efficacy verses control (sham) (ANOVA, p < 0.05): seminal vesicle wet weight normalized to body weight
Experimental: Male Wistar rats (12 weeks old) are castrated (gonadectomized or “GDX”) according to approved procedures (Charles River Labs) and allowed to waste for eight - 10 weeks. Age-matched sham-operated mice are also prepared. (Sham-operated mice are animals that have been exposed to the same surgical procedures as castrated animals except their testes are not removed.) Animals are housed in a temperature-controlled room (24° C.) with a reversed 12 hour light/dark cycle (dark 10:00/22:00) and water and food are available ad libitum.
Test compounds are administered to the animals using conventional vehicles. For example, 1% sodium carboxymethylcellulose (CMC)+0.25% Tween 80 in sterile H2O can be used for oral administration and 6% ethyl-alcohol (EtOH)+94% cyclodexitrane (CDX) can be used for subcutaneous injections. Sham operated rats treated with vehicle alone are used as a treatment positive controls whereas castrated rats treated only with vehicle are used as treatment negative control.
Test animals are dosed over a two week timeframe, orally or subcutaneously, with, for example, 0.3, 1, 3, 10 or 30 mg/kg/day of a compound of the present invention. After the two-week treatment, as an indicator of activity, the wet weight of the Levator Ani (LA) muscle in the test group is determined and compared to the wet weight of the Levator Ani from the castrated, vehicle-only control group. The wet weights of the muscle obtained in both the test group and the vehicle-only group are normalized relative to total body weight. As an indicator of tissue selective activity, the wet weight of the seminal vesicle (SV) from test animals is similarly compared to the wet weight of the seminal vesicles from the sham, vehicle-only group. Again, the wet weights of the vesicles obtained from both the test group and the vehicle-only group are normalized relative to total body weight.
In addition to the Levator Ani wet weight, the left tibia of rats are isolated during necropsy and after uncapping of the epiphysis, the soft tissue surrounding the bone is carefully removed. This sample is then placed in a solution containing 0.2% collagenase in Tris Buffer (pH 7.5). The resulting enzymatic excision of the outer periosteal layer is subjected immediately to an assay to determine alkaline phosphatase activity, an indicator of osteoblast/bone anabolic activity. Briefly, 30 μL of sample is placed in an epitube containing 200 μL of para-nitrophenyl phosphate (PNPP) substrate buffer (Pierce Cat # 37621). Purified alkaline phosphatase (Sigma Cat. # P4252) is used to make a standard curve, and the samples are read in a plate reader at Abs405 to determine periosteal alkaline phosphatase (PALP) activity. The results obtained from both the test group and the vehicle only group may be normalized relative to total body weight.
Percent Efficacy (% Eff.) values may be determined as follows: % Eff.=((Wet weight of LA or SV or PALP activity in test animal/test animal total body weight)/(Wet weight of LA or SV or PALP activity in control animal/control animal total body weight))×100.

Structure (SMILES): CN(C)S(=O)(=O)N[C@@H]1Cc2c(n(Cc3cccc(F)n3)c3ccc(C#N)cc23)C1 [Example 74, (R)-N′-[7-Cyano-4-(6-fluoro-pyridin-2-ylmethyl)-1,2,3,4-tetrahydro-cyclopenta[b]indol-2-yl]-N,N-dimethylsulfamide]
- LA weight % Efficacy versus control (GDX) (ANOVA, p < 0.05) (3 mg/Kg/d): 134%
- PALP % Efficacy versus control (GDX) (ANOVA, p < 0.05) (3 mg/Kg/d): 95%
- SV weight % Efficacy verses control (sham) (ANOVA, p < 0.05) (3 mg/Kg/d): 6%
- LA weight % Efficacy versus control (GDX) (ANOVA, p < 0.05) (10 mg/Kg/d): 195%
- PALP % Efficacy versus control (GDX) (ANOVA, p < 0.05) (10 mg/Kg/d): 116%
- SV weight % Efficacy verses control (sham) (ANOVA, p < 0.05) (10 mg/Kg/d): 8%
- LA weight % Efficacy versus control (GDX) (ANOVA, p < 0.05) (30 mg/Kg/d): 186%
- PALP % Efficacy versus control (GDX) (ANOVA, p < 0.05) (30 mg/Kg/d): 107%
- SV weight % Efficacy verses control (sham) (ANOVA, p < 0.05) (30 mg/Kg/d): 14%

Reference: patent US7968587B2, “Tetrahydrocyclopenta[b]indole compounds as androgen receptor modulators” (priority 2006, dated 2011)
